Assays:
Assay in all cases: NCI-60 single dose screen, sulforhodamine B
Format in all cases: cell-based, human
A498 = conditions: Renal cancer A498; single dose 10^−5 M
Method in brief: (§1)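 Percent growth inhibition, referenced to untreated wells and a time-zero plate, allowing net growth inhibition to be distinguished from cell kill. Exposure lasted 2 days at 10^−5 M after 1-day pre-incubation; sulforhodamine B protein stain.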

A549/ATCC = conditions: Non-small cell lung cancer A549/ATCC; single dose 10^−5 M
Method in brief: as §1

ACHN = conditions: Renal cancer ACHN; single dose 10^−5 M
Method in brief: as §1

BT-549 = conditions: Breast cancer BT-549; single dose 10^−5 M
Method in brief: as §1

COLO 205 = conditions: Colon cancer COLO 205; single dose 10^−5 M
Method in brief: as §1

EKVX = conditions: Non-small cell lung cancer EKVX; single dose 10^−5 M
Method in brief: as §1

HCC-2998 = conditions: Colon cancer HCC-2998; single dose 10^−5 M
Method in brief: as §1

HCT-116 = conditions: Colon cancer HCT-116; single dose 10^−5 M
Method in brief: as §1

HOP-92 = conditions: Non-small cell lung cancer HOP-92; single dose 10^−5 M
Method in brief: as §1

HT29 = conditions: Colon cancer HT29; single dose 10^−5 M
Method in brief: as §1

MDA-MB-231/ATCC = conditions: Breast cancer MDA-MB-231/ATCC; single dose 10^−5 M
Method in brief: as §1

MDA-MB-435 = conditions: Melanoma MDA-MB-435; single dose 10^−5 M
Method in brief: as §1

MOLT-4 = conditions: Leukaemia MOLT-4; single dose 10^−5 M
Method in brief: as §1

NCI-H226 = conditions: Non-small cell lung cancer NCI-H226; single dose 10^−5 M
Method in brief: as §1

NCI-H23 = conditions: Non-small cell lung cancer NCI-H23; single dose 10^−5 M
Method in brief: as §1

NCI-H322M = conditions: Non-small cell lung cancer NCI-H322M; single dose 10^−5 M
Method in brief: as §1

NCI-H460 = conditions: Non-small cell lung cancer NCI-H460; single dose 10^−5 M
Method in brief: as §1

NCI/ADR-RES = conditions: Ovarian cancer NCI/ADR-RES; single dose 10^−5 M
Method in brief: as §1

OVCAR-3 = conditions: Ovarian cancer OVCAR-3; single dose 10^−5 M
Method in brief: as §1

OVCAR-8 = conditions: Ovarian cancer OVCAR-8; single dose 10^−5 M
Method in brief: as §1

PC-3 = conditions: Prostate cancer PC-3; single dose 10^−5 M
Method in brief: as §1

SF-268 = conditions: CNS cancer SF-268; single dose 10^−5 M
Method in brief: as §1

SK-MEL-28 = conditions: Melanoma SK-MEL-28; single dose 10^−5 M
Method in brief: as §1

SK-MEL-5 = conditions: Melanoma SK-MEL-5; single dose 10^−5 M
Method in brief: as §1

SNB-19 = conditions: CNS cancer SNB-19; single dose 10^−5 M
Method in brief: as §1

SR = conditions: Leukaemia SR; single dose 10^−5 M
Method in brief: as §1

SW-620 = conditions: Colon cancer SW-620; single dose 10^−5 M
Method in brief: as §1

T-47D = conditions: Breast cancer T-47D; single dose 10^−5 M
Method in brief: as §1

TK-10 = conditions: Renal cancer TK-10; single dose 10^−5 M
Method in brief: as §1

U251 = conditions: CNS cancer U251; single dose 10^−5 M
Method in brief: as §1

UACC-257 = conditions: Melanoma UACC-257; single dose 10^−5 M
Method in brief: as §1

Row | Compound | GI% at 10^−5 M (A498) | GI% at 10^−5 M (A549/ATCC) | GI% at 10^−5 M (ACHN) | GI% at 10^−5 M (BT-549) | GI% at 10^−5 M (COLO 205) | GI% at 10^−5 M (EKVX) [%] | GI% at 10^−5 M (HCC-2998) | GI% at 10^−5 M (HCT-116) | GI% at 10^−5 M (HOP-92) [%] | GI% at 10^−5 M (HT29) | GI% at 10^−5 M (MDA-MB-231/ATCC) | GI% at 10^−5 M (MDA-MB-435) | GI% at 10^−5 M (MOLT-4) | GI% at 10^−5 M (NCI-H226) | GI% at 10^−5 M (NCI-H23) | GI% at 10^−5 M (NCI-H322M) | GI% at 10^−5 M (NCI-H460) | GI% at 10^−5 M (NCI/ADR-RES) | GI% at 10^−5 M (OVCAR-3) | GI% at 10^−5 M (OVCAR-8) | also measured
1 | O=C(CNn1c(COc2ccccc2)nc2ccccc2c1=O)Nc1ccc(Cl)cc1 [Compound 4c, N-(4-chlorophenyl)-2-((4-oxo-2-(phenoxymethyl)quinazolin-3(4H)-yl)amino)acetamide] | 16.35% | – (– means GI < 10%) | – (– means GI < 10%) | 12.12% | – (– means GI < 10%) | 19.01 | – (– means GI < 10%) | – (– means GI < 10%) | 29.33 | – (– means GI < 10%) | – (– means GI < 10%) | – (– means GI < 10%) | 15.9% | 11.13% | – (– means GI < 10%) | – (– means GI < 10%) | – (– means GI < 10%) | 10.99% | – (– means GI < 10%) | – (– means GI < 10%) | GI% at 10^−5 M (PC-3): 15.9%; GI% at 10^−5 M (SF-268): – (– means GI < 10%); GI% at 10^−5 M (SK-MEL-28): – (– means GI < 10%); GI% at 10^−5 M (SK-MEL-5): – (– means GI < 10%); GI% at 10^−5 M (SNB-19): – (– means GI < 10%); GI% at 10^−5 M (SR): 10.05%; GI% at 10^−5 M (SW-620): – (– means GI < 10%); GI% at 10^−5 M (T-47D): 29.33%; GI% at 10^−5 M (TK-10): – (– means GI < 10%); GI% at 10^−5 M (U251): – (– means GI < 10%); GI% at 10^−5 M (UACC-257): – (– means GI < 10%)
2 | O=C(CNn1c(COc2ccccc2)nc2ccccc2c1=O)Nc1ccccc1 [Compound 4a, 2-((4-oxo-2-(phenoxymethyl)quinazolin-3(4H)-yl)amino)-N-phenylacetamide] | – (– means GI < 10%) | – (– means GI < 10%) | – (– means GI < 10%) | – (– means GI < 10%) | – (– means GI < 10%) | 14.38 | – (– means GI < 10%) | – (– means GI < 10%) | 15.94 | – (– means GI < 10%) | 18.56% | – (– means GI < 10%) | – (– means GI < 10%) | – (– means GI < 10%) | 16.55% | – (– means GI < 10%) | – (– means GI < 10%) | – (– means GI < 10%) | – (– means GI < 10%) | – (– means GI < 10%) | GI% at 10^−5 M (PC-3): 10.95%; GI% at 10^−5 M (SF-268): – (– means GI < 10%); GI% at 10^−5 M (SK-MEL-28): – (– means GI < 10%); GI% at 10^−5 M (SK-MEL-5): – (– means GI < 10%); GI% at 10^−5 M (SNB-19): – (– means GI < 10%); GI% at 10^−5 M (SR): – (– means GI < 10%); GI% at 10^−5 M (SW-620): – (– means GI < 10%); GI% at 10^−5 M (T-47D): – (– means GI < 10%); GI% at 10^−5 M (TK-10): – (– means GI < 10%); GI% at 10^−5 M (U251): – (– means GI < 10%); GI% at 10^−5 M (UACC-257): – (– means GI < 10%)
3 | Cc1ccc(S(=O)(=O)Nn2c(COc3ccccc3)nc3ccccc3c2=O)cc1 [Compound 5b, 4-methyl-N-(4-oxo-2-(phenoxymethyl)quinazolin-3(4H)-yl)benzenesulfonamide] | – (– means GI < 10%) | – (– means GI < 10%) | 15% | – (– means GI < 10%) | – (– means GI < 10%) | 13.18 | – (– means GI < 10%) | – (– means GI < 10%) | 10.82 | – (– means GI < 10%) | 10.94% | – (– means GI < 10%) | – (– means GI < 10%) | – (– means GI < 10%) | 11.47% | – (– means GI < 10%) | – (– means GI < 10%) | – (– means GI < 10%) | – (– means GI < 10%) | – (– means GI < 10%) | GI% at 10^−5 M (PC-3): – (– means GI < 10%); GI% at 10^−5 M (SF-268): – (– means GI < 10%); GI% at 10^−5 M (SK-MEL-28): – (– means GI < 10%); GI% at 10^−5 M (SK-MEL-5): – (– means GI < 10%); GI% at 10^−5 M (SNB-19): – (– means GI < 10%); GI% at 10^−5 M (SR): – (– means GI < 10%); GI% at 10^−5 M (SW-620): – (– means GI < 10%); GI% at 10^−5 M (T-47D): – (– means GI < 10%); GI% at 10^−5 M (TK-10): 23.64%; GI% at 10^−5 M (U251): – (– means GI < 10%); GI% at 10^−5 M (UACC-257): – (– means GI < 10%)

From article PMC8843100, “Development of newly synthesised quinazolinone-based CDK2 inhibitors with potent efficacy against melanoma” (Journal of Enzyme Inhibition and Medicinal Chemistry, 2022)
